This is an account of results in ChEMBL document CHEMBL3603764, “Structure-activity relationship of N-benzenesulfonyl matrinic acid derivatives as a novel class of coxsackievirus B3 inhibitors” (Bioorg Med Chem Lett, 2015).

For series [1], the system named is Coxsackievirus B3. Nature of the series: Antivirus activity against Coxsackievirus B3 infected in African green monkey vero cells assessed as inhibition of virus-induced cytopathic effect. Format: functional, organism-based. The settings on record: Enterovirus B. Background: Protection from cytopathic effect is a common read-out in antiviral testing.
Series [2] can be described thus: Cytotoxicity against African green monkey Vero cells assessed as growth inhibition after 48 hrs. Conditions: chlorocebus sabaeus, read-out: TC50. Format: cell-based.
A short description of series [3]: Selectivity index, ratio of TC50 for African green monkey vero cells to IC50 for Coxsackievirus B3. It counts as toxicity, cell-based. Conditions: read-out: Selectivity Index.

Molecules are shown by their SMILES.

One may read the IC50 as the concentration that inhibits the measured activity by half.

With `CN1CCN(CCCC[C@@H]2[C@H]3CCCN4CCC[C@@H](CN2S(=O)(=O)c2cccc(C#N)c2)[C@@H]34)CC1`, the 50% inhibitory concentration (IC50) in series [1] is above 22.2 µM. Besides, the CC50 at 48 h in series [2] was determined as 116 µM.
In the case of `CN1CCN(CCCC[C@@H]2[C@H]3CCCN4CCC[C@@H](CN2S(=O)(=O)c2ccc(C#N)cc2)[C@@H]34)CC1`, in series [1], the IC50 was above 22.2 µM.
As to `N#Cc1ccc(S(=O)(=O)N2C[C@@H]3CCCN4CCC[C@@H]([C@H]34)[C@H]2CCCCN2CCOCC2)cc1`, the IC50 in series [1] is above 22.2 µM. Further, the CC50 at 48 h in series [2] is 96.2 µM.
In the same order, the values of `CN(C)CCCC[C@@H]1[C@H]2CCCN3CCC[C@@H](CN1S(=O)(=O)c1ccc(C#N)cc1)[C@@H]23` are above 22.2 µM and 96.2 µM.
`CN1CCN(CCCC[C@@H]2[C@H]3CCCN4CCC[C@@H](CN2S(=O)(=O)c2cccc(C(F)(F)F)c2)[C@@H]34)CC1`: the IC50 in series [1] was above 7.4 µM. Moreover, the CC50 at 48 h in series [2] stood at 51.5 µM.
In the case of `CC(=O)c1ccc(S(=O)(=O)N2C[C@@H]3CCCN4CCC[C@@H]([C@H]34)[C@H]2CCCCN2CCN(C)CC2)cc1`, in series [1], the IC50 is above 22.2 µM.
Same read-out and setting: the value for `CC(=O)c1ccc(S(=O)(=O)N2C[C@@H]3CCCN4CCC[C@@H]([C@H]34)[C@H]2CCCCN2CCOCC2)cc1` was above 22.2 µM; that for `CC(=O)c1ccc(S(=O)(=O)N2C[C@@H]3CCCN4CCC[C@@H]([C@H]34)[C@H]2CCCCN(C)C)cc1` was above 22.2 µM.
On the same count and under the same terms, the value for `COC(=O)c1ccc(S(=O)(=O)N2C[C@@H]3CCCN4CCC[C@@H]([C@H]34)[C@H]2CCCCN2CCN(C)CC2)cc1` was above 22.2 µM; that for `CN1CCN(CCCC[C@@H]2[C@H]3CCCN4CCC[C@@H](CN2S(=O)(=O)c2ccc(S(C)(=O)=O)cc2)[C@@H]34)CC1` was above 22.2 µM.
Turning to `COCCCC[C@@H]1[C@H]2CCCN3CCC[C@@H](CN1S(=O)(=O)c1cccc(C#N)c1)[C@@H]23`, the IC50 in series [1] is 8.41 µM. For the same compound, in series [3], the selectivity ratio is 39.5. Moreover, the CC50 at 48 h in series [2] amounted to 332 µM.
`COCCCC[C@@H]1[C@H]2CCCN3CCC[C@@H](CN1S(=O)(=O)c1cccc(C(F)(F)F)c1)[C@@H]23`: the IC50 in series [1] amounted to 1.31 µM. In addition, the selectivity ratio in series [3] amounted to 57.4. For the same compound, the CC50 at 48 h in series [2] turned out to be 75.4 µM.
In the same order, the values of `COC(=O)CCC[C@@H]1[C@H]2CCCN3CCC[C@@H](CN1S(=O)(=O)c1ccc(OC(F)(F)F)cc1)[C@@H]23` are 14.7 µM, 13 and 191 µM.
In the case of `O=S(=O)(c1ccc(OC(F)(F)F)cc1)N1C[C@@H]2CCCN3CCC[C@@H]([C@H]23)[C@H]1CCCCO`, in series [1], the IC50 stood at 10 µM. Besides, in series [3], the selectivity ratio stood at 10.1. Further, the CC50 at 48 h in series [2] was 101 µM.
Take `O=C(O)CCC[C@@H]1[C@H]2CCCN3CCC[C@@H](CN1S(=O)(=O)c1ccc(OC(F)(F)F)cc1)[C@@H]23`: in series [1], the IC50 is above 127 µM. The CC50 at 48 h in series [2] was above 380 µM.
Take `CC(=O)c1ccc(S(=O)(=O)N2C[C@@H]3CCCN4CCC[C@@H]([C@H]34)[C@H]2CCCC(=O)O)cc1`: the IC50 in series [1] is above 138 µM. In addition, the CC50 at 48 h in series [2] is above 413 µM.
Regarding `O=C(CCC[C@@H]1[C@H]2CCCN3CCC[C@@H](CN1S(=O)(=O)c1cccc(C(F)(F)F)c1)[C@@H]23)N1CCOCC1`, in series [1], the IC50 worked out at 3.95 µM. Further, in series [3], the selectivity ratio stood at 38.9. The CC50 at 48 h in series [2] stood at 156 µM.
With `NC(=O)CCC[C@@H]1[C@H]2CCCN3CCC[C@@H](CN1S(=O)(=O)c1cccc(C(F)(F)F)c1)[C@@H]23`, the IC50 in series [1] was found to be 4.33 µM. Moreover, the selectivity ratio in series [3] stood at 40.8. Moreover, the CC50 at 48 h in series [2] is 177 µM.
`CNC(=O)CCC[C@@H]1[C@H]2CCCN3CCC[C@@H](CN1S(=O)(=O)c1cccc(C(F)(F)F)c1)[C@@H]23`: the IC50 in series [1] was determined as 2.56 µM. Besides, the selectivity ratio in series [3] was determined as 67.2. In addition, in series [2], the CC50 at 48 h stood at 172 µM.
For `CN(C)C(=O)CCC[C@@H]1[C@H]2CCCN3CCC[C@@H](CN1S(=O)(=O)c1cccc(C(F)(F)F)c1)[C@@H]23`, in series [1], the half-maximal inhibitory concentration (IC50) came to 2.49 µM. Besides, the selectivity ratio in series [3] came to 67.2. For the same compound, in series [2], the CC50 at 48 h was 168 µM.
Turning to `CC(=O)c1ccc(S(=O)(=O)N2C[C@@H]3CCCN4CCC[C@@H]([C@H]34)[C@H]2CCCC(=O)N2CCOCC2)cc1`, the IC50 in series [1] was above 118 µM. The CC50 at 48 h in series [2] is above 361 µM.
Consider `CC(=O)c1ccc(S(=O)(=O)N2C[C@@H]3CCCN4CCC[C@@H]([C@H]34)[C@H]2CCCC(=O)N2CCC2)cc1`, for which, in series [1], the IC50 was above 127 µM. In addition, the CC50 at 48 h in series [2] was above 382 µM.
Take `CC(=O)c1ccc(S(=O)(=O)N2C[C@@H]3CCCN4CCC[C@@H]([C@H]34)[C@H]2CCCC(=O)N(C)C)cc1`: in series [1], the IC50 was above 130 µM. Further, the CC50 at 48 h in series [2] is above 391 µM.
In the case of `O=C(CCC[C@@H]1[C@H]2CCCN3CCC[C@@H](CN1S(=O)(=O)c1ccc(OC(F)(F)F)cc1)[C@@H]23)N1CCOCC1`, the IC50 in series [1] was 7.19 µM. Besides, the selectivity ratio in series [3] came out at 22.5. The CC50 at 48 h in series [2] was determined as 162 µM.
Consider `O=C(CCC[C@@H]1[C@H]2CCCN3CCC[C@@H](CN1S(=O)(=O)c1ccc(OC(F)(F)F)cc1)[C@@H]23)N1CCC1`, for which the IC50 in series [1] amounted to 5.58 µM. For the same compound, the selectivity ratio in series [3] came to 21.2. In series [2], the CC50 at 48 h was found to be 170 µM.
As for `CN(C)C(=O)CCC[C@@H]1[C@H]2CCCN3CCC[C@@H](CN1S(=O)(=O)c1ccc(OC(F)(F)F)cc1)[C@@H]23`, the IC50 in series [1] worked out at 2.74 µM. In addition, the selectivity ratio in series [3] stood at 63.3. Moreover, in series [2], the CC50 at 48 h stood at 174 µM.
`COC(=O)CCC[C@@H]1[C@H]2CCCN3CCC[C@@H](CN1S(=O)(=O)c1ccc(C(C)=O)cc1)[C@@H]23`: in series [1], the IC50 came out at 8.58 µM. Further, the selectivity ratio in series [3] was determined as 22.5. In series [2], the CC50 at 48 h is 193 µM.
As to `COC(=O)CCC[C@@H]1[C@H]2CCCN3CCC[C@@H](CN1S(=O)(=O)c1ccc(/C(C)=N/O)cc1)[C@@H]23`, in series [1], the IC50 was above 39.3 µM. Also, the CC50 at 48 h in series [2] is 53.9 µM.
In the same order, the values of `CC(O)c1ccc(S(=O)(=O)N2C[C@@H]3CCCN4CCC[C@@H]([C@H]34)[C@H]2CCCCO)cc1` (some centres undefined) are above 142 µM and above 425 µM.
